Entries after “also recorded” stand apart in the source; their conditions may differ.
How the values were obtained:
MAO-B [1] = biological target: T1, MAO-B (Homo sapiens, UniProt P27338); test: Recombinant human MAO-B inhibition assay (benzylamine substrate); details: for SI (IC50 of MAO-A/IC50 of MAO-B): selectivity index for MAO-B; for Times more potent on MAO-B than lazabemide: ratio of MAO-B potency versus reference reversible inhibitor lazabemide
T1 sequence (P27338 1-520): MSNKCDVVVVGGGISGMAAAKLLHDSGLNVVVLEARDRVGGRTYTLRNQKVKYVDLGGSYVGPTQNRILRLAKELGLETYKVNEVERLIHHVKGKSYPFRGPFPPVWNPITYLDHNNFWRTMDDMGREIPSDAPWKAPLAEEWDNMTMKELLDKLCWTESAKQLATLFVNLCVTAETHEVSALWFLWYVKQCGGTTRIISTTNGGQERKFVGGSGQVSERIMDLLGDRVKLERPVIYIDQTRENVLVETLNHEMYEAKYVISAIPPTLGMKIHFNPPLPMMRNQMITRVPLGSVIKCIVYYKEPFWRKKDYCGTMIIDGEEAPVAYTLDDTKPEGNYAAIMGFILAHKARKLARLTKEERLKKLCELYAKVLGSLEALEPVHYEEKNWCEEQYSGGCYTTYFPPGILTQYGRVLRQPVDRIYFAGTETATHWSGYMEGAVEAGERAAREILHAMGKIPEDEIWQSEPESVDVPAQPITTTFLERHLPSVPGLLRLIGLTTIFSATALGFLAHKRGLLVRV
Experimental: Recombinant human MAO-A and MAO-B inhibitory activities of were continuously assayed as described previously [37], using kynuramine (0.06 mM) and benzylamine (0.3 mM), respectively. […] MAO-A and MAO-B inhibitory activities were measured after preincubating enzymes and inhibitors for 15 min. Enzymes and chemicals were obtained from Sigma-Aldrich (St. Louis, MO, USA).
(§2) Kinetic experiments were carried out at five substrate and three inhibitor concentrations [38].

recombinant human MAO-A = biological target: T2, recombinant human MAO-A (Homo sapiens, UniProt P21397); test: Recombinant human MAO-A inhibition assay (kynuramine substrate); format: biochemical; details: kynuramine 0.06 mM, 15 min preincubation; for remaining activity at 10 µM: inhibitor 10 µM, read-out: Residual Activity (%) MAO-A (10 µM)
T2 construct: purchased Sigma-Aldrich
T2 sequence (P21397 1-527): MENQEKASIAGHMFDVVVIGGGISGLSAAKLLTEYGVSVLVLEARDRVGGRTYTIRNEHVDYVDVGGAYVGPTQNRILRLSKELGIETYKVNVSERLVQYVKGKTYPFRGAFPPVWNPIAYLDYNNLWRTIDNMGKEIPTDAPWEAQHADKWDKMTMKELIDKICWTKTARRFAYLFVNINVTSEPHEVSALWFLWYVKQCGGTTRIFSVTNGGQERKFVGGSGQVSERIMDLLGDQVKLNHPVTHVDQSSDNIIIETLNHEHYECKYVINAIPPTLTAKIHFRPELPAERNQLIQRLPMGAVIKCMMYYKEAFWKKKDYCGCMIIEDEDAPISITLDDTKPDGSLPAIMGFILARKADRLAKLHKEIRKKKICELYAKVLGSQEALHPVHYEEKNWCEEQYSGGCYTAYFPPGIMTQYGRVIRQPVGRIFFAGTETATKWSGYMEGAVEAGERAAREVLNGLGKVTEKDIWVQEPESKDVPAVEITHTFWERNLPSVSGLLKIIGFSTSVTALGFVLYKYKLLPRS
Experimental: Recombinant human MAO-A and MAO-B inhibitory activities of were continuously assayed as described previously [37], using kynuramine (0.06 mM) and benzylamine (0.3 mM), respectively. […] MAO-A and MAO-B inhibitory activities were measured after preincubating enzymes and inhibitors for 15 min.
The inhibitory activities of the twelve compounds against MAO-A and MAO-B were first investigated at an inhibitor concentration of 10 µM. For the compounds showing residual activities of <50%, IC50 values for MAO-A and MAO-B inhibitions were determined. Kinetic experiments were carried out at five substrate and three inhibitor concentrations [38].

[2] = MTS cytotoxicity assay in L929 cells; format: cell-based, mouse; details: mouse, L929 cells (mouse fibroblast cell line), 48 h treatment
Experimental: (§1) An MTS (5-(3-carboxymethoxyphenyl)-2-(4,5-dimethyl-thiazolyl)-3-(4-sulfophenyl)) tetrazolium assay was used to evaluate the cytotoxic activities of T3 and T6 by measuring formazan absorbance. MTS is converted to formazan by mitochondria in metabolically active cells via NAD(P)H-dependent dehydrogenase enzymes. L929 cells (a mouse fibroblast cell line) were used to evaluate the cytotoxicities. Briefly, cells (5 × 10^4 cells/well) were seeded into 96-well plates in DMEM containing 10% fetal bovine serum and 1% penicillin/streptomycin, and incubated for 24 h. After supernatants were removed, the cells were treated with the compounds dissolved in DMSO (at 1, 10, 20, 50, or 100 µM) in triplicate for 48 h at 37 °C in a 5% CO2 atmosphere. MTS reagent (Uptima, Interchim, Montluçon, France) was then added to each well and incubated for 3 h. Absorbances were measured at 490 nm using a microplate reader (BioTek, Winooski, VT, USA), and cell viabilities were calculated as percentage of untreated controls.

L929 cells = test: MTS cytotoxicity assay in L929 cells; format: cell-based, mouse; details: 48 h
Experimental: as §1

MAO-B [3] = biological target: T1, MAO-B; test: Reversibility of MAO-B inhibition by dialysis; format: biochemical; parameters: purchased Sigma-Aldrich; details: for Relative MAO-B activity of dialyzed sample (AD) / Relative MAO-B activity of undialyzed sample (AU): 30 min preincubation, T3 0.080 µM, T6 0.020 µM, lazabemide 0.30 µM; for Relative MAO-B activity of dialyzed sample (AD): after dialysis; for Reversibility of MAO-B inhibition (recovery by dialysis): pargyline 0.060 µM
Experimental: Reversibility studies were performed using a dialysis-based method.
The reversibilities of T3 and T6 inhibitions were investigated by dialysis after preincubating them with MAO-B for 30 min, as previously described. […] Reversibilities were determined using the relative activities of undialyzed (AU) and dialyzed (AD) samples [40].

MAO-B [4] = biological target: T1, MAO-B; test: Kinetics of MAO-B inhibition (Lineweaver-Burk and secondary plots); format: biochemical; parameters: purchased Sigma-Aldrich
Experimental: as §2

SMILES	IC50 (MAO-B [1]) [nM]	remaining activity at 10 µM (recombinant human MAO-A) [%]	SI (IC50 of MAO-A/IC50 of MAO-B) (MAO-B [1])	IC50 (recombinant human MAO-A) [µM]	melting point [°C]	further results
O=C(Cn1nc(N2CCN(c3ccccc3F)CC2)ccc1=O)NN=Cc1ccccc1 [Compound T1]	7680 ± 140	96.6 ± 1.2	–	–	–	–
Cc1ccc(C=NNC(=O)Cn2nc(N3CCN(c4ccccc4F)CC3)ccc2=O)cc1 [Compound T2]	100 ± 35	24.6 ± 2.86	42.9	4.29 ± 0.12	–	–
O=C(Cn1nc(N2CCN(c3ccccc3F)CC2)ccc1=O)NN=Cc1ccccc1Cl [Compound T3]	39 ± 2.8	24.6 ± 0.97	107.4	4.19 ± 0.27	–	Times more potent on MAO-B than lazabemide (MAO-B [1]): 3; IC50 at 48 h [2]: 27000 nM; Cytotoxic effect on L929 cells at 1, 10, or 20 µM (L929 cells; 1, 10, or 20 µM): no significant death; Cytotoxic effect on L929 cells at 50 and 100 µM (L929 cells; 50 and 100 µM): complete cell death; Relative MAO-B activity of dialyzed sample (AD) (MAO-B [3]): 79.4%; Relative MAO-B activity of undialyzed sample (AU) (MAO-B [3]): 22.2%; Reversibility of MAO-B inhibition (recovery by dialysis) (MAO-B [3]): reversibly inhibit MAO-B; also recorded: reversible; Type of MAO-B inhibition (MAO-B [4]): competitive inhibitors
O=C(Cn1nc(N2CCN(c3ccccc3F)CC2)ccc1=O)NN=Cc1ccc(Cl)cc1 [Compound T4]	99 ± 6.9	75.2 ± 4.7	–	–	–	–
O=C(Cn1nc(N2CCN(c3ccccc3F)CC2)ccc1=O)NN=Cc1ccc(Br)cc1 [Compound T5]	1680 ± 110	84 ± 0.68	–	–	–	–
COc1ccccc1C=NNC(=O)Cn1nc(N2CCN(c3ccccc3F)CC2)ccc1=O [Compound T6]	13 ± 1.6	20.7 ± 0.62	120.8	1.57 ± 0.8	–	Times more potent on MAO-B than lazabemide (MAO-B [1]): 11; MAO-B potency relative to pargyline (MAO-B [1]; versus reference irreversible inhibitor pargyline): twice as potent; IC50 at 48 h [2]: > 100000 nM; Cytotoxic effect on L929 cells at any dose (L929 cells; 1, 10, 20, 50, or 100 µM): did not have a cytotoxic effect; Relative MAO-B activity of dialyzed sample (AD) (MAO-B [3]): 79.0%; Relative MAO-B activity of undialyzed sample (AU) (MAO-B [3]): 36.9%; Reversibility of MAO-B inhibition (recovery by dialysis) (MAO-B [3]): reversibly inhibit MAO-B; also recorded: reversible; Type of MAO-B inhibition (MAO-B [4]): competitive inhibitors
CN(C)c1ccc(C=NNC(=O)Cn2nc(N3CCN(c4ccccc4F)CC3)ccc2=O)cc1 [Compound T7]	870 ± 56	25.4 ± 6.92	–	4.43 ± 0.29	–	–
O=C(Cn1nc(N2CCN(c3ccccc3F)CC2)ccc1=O)NN=Cc1cccc(Br)c1 [Compound T8, 6-[4-(2-Fluorophenyl)piperazine-1-yl]-3(2H)-pyridazinone-2-acetyl-2-(3-bromobenzal)hydrazon]	2670 ± 51	73.3 ± 2.86	–	–	207 to 208	–
O=C(Cn1nc(N2CCN(c3ccccc3F)CC2)ccc1=O)NN=Cc1ccccc1F [Compound T9, 6-[4-(2-Fluorophenyl)piperazine-1-yl]-3(2H)-pyridazinone-2-acetyl-2-(2-fluorobenzal)hydrazon]	200 ± 1.7	35.2 ± 0.56	33.8	6.76 ± 0.46	225 to 226	–
O=C(Cn1nc(N2CCN(c3ccccc3F)CC2)ccc1=O)NN=Cc1ccc(F)cc1 [Compound T10, 6-[4-(2-Fluorophenyl)piperazine-1-yl]-3(2H)-pyridazinone-2-acetyl-2-(4-florobenzal)hydrazon]	35300 ± 390	33.7 ± 4.7	0.21	7.35 ± 0.059	178 to 180	–
COc1ccc(C=NNC(=O)Cn2nc(N3CCN(c4ccccc4F)CC3)ccc2=O)cc1 [Compound T11, 6-[4-(2-Fluorophenyl)piperazine-1-yl]-3(2H)-pyridazinone-2-acetyl-2-(4-methoxybenzal)hydrazon]	6860 ± 370	70.4 ± 8.5	–	–	148 to 150	–
Cc1ccccc1C=NNC(=O)Cn1nc(N2CCN(c3ccccc3F)CC2)ccc1=O [Compound T12, 6-[4-(2-Fluorophenyl)piperazine-1-yl]-3(2H)-pyridazinone-2-acetyl-2-(2-methylbenzal)hydrazon]	150 ± 21	61.8 ± 1.65	–	–	244 to 245	–

Reference: publication PMC7698448, “Design, Synthesis, and Biological Evaluation of Pyridazinones Containing the (2-Fluorophenyl) Piperazine Moiety as Selective MAO-B Inhibitors” (Molecules, 2020)
